Pest or weed control data for 34 compounds are collected here from US9700047B2, “Macrocyclic picolinamides as fungicides” (Dow AgroSciences LLC, priority 2014, dated 2017).

Read-outs that look alike come from different tables or passages of the source.

In this test the test system is Puccinia triticina; Synonym: Puccinia recondita f sp. tritici. In words: Wheat brown rust (PUCCRT) disease control on wheat seedlings. The class given is in vivo. The conditions noted are these: for pest or weed control at 100 ppm: High Volume activity at 100 ppm; for pest or weed control at 121.5 g/ha: Low Volume activity at 121.5 g/H. The procedure:
All fungicides were evaluated using the aforementioned method for their activity vs. all target diseases, unless stated otherwise. Wheat leaf blotch and brown rust activity were also evaluated using track spray applications, in which case the fungicides were formulated as EC formulations, containing 0.1% Trycol 5941 in the spray solutions. Wheat plants (variety Yuma) were grown from seed in a greenhouse in 50% mineral soil/50% soil-less Metro mix until the first leaf was fully emerged, with 7-10 seedlings per pot. These plants were inoculated with an aqueous spore suspension of Puccinia triticina either prior to or after fungicide treatments. […] The plants were then transferred to a greenhouse set at 24° C. for disease to develop. Fungicide formulation, application and disease assessment followed the procedures as described in the Example A.

The mark [1] stands for this setting: 24 h, 1 Day Protectant, read-out: PUCCRT 1DP % Control rating.
[2] abbreviates: 72 h, 3 Day Curative, read-out: PUCCRT 3DC % Control rating.

Regarding `CCCC[C@@H]1[C@@H](Cc2ccccc2)CCC[C@H](NC(=O)c2nccc(OC)c2OC(C)=O)C(=O)O[C@H]1C` [Compound 1, 2-(((3S,7R,8R,9S)-7-benzyl-8-butyl-9-methyl-2-oxooxonan-3-yl)carbamoyl)-4-methoxypyridin-3-yl acetate], under setting [1], the pest or weed control at 100 ppm is over 70% and the pest or weed control at 121.5 g/ha was over 70%. Under setting [2], the pest or weed control at 100 ppm is over 70% and the pest or weed control at 121.5 g/ha is under 70%.

Regarding `CCCC[C@@H]1[C@@H](Cc2ccccc2)CCC[C@H](NC(=O)c2nccc(OC)c2OCOC(C)=O)C(=O)O[C@H]1C` [Compound 2, ((2-(((3S,7R,8R,9S)-7-benzyl-8-butyl-9-methyl-2-oxooxonan-3-yl)carbamoyl)-4-methoxypyridin-3-yl)oxy)methyl acetate], under setting [1], the pest or weed control at 100 ppm was over 70% and the pest or weed control at 121.5 g/ha is over 70%. Also, under setting [2], the pest or weed control at 100 ppm was over 70% and the pest or weed control at 121.5 g/ha is under 70%.

As for `COc1ccnc(C(=O)N[C@H]2CCC[C@H](CCC(C)C)[C@@H](Cc3ccccc3)[C@H](C)OC2=O)c1OC(C)=O` [Compound 4], the pest or weed control at 121.5 g/ha is over 70% under setting [1] and under 70% under setting [2].

For `COc1ccnc(C(=O)N[C@H]2CCC[C@H](Cc3ccccc3)[C@@H](Cc3ccccc3)[C@H](C)OC2=O)c1OC(C)=O` [Compound 5], the pest or weed control at 121.5 g/ha under setting [1] was over 70% and the pest or weed control at 121.5 g/ha under setting [2] was over 70%.

For the compound `COc1ccnc(C(=O)N[C@H]2CCC[C@H](Cc3ccccc3)[C@@H](Cc3ccccc3)[C@H](C)OC2=O)c1OCOC(C)=O` [Compound 6], the pest or weed control at 121.5 g/ha runs as follows: under setting [1], over 70%; under setting [2], over 70%.

In the case of `COc1ccnc(C(=O)N[C@H]2CCC[C@H](Cc3ccccc3)[C@@H](Cc3ccccc3)[C@H](C)OC2=O)c1OCOC(=O)C(C)C` [Compound 7, ((2-(((3S,7R,8R,9S)-7,8-dibenzyl-9-methyl-2-oxooxonan-3-yl)carbamoyl)-4-methoxypyridin-3-yl)oxy)methyl isobutyrate], the pest or weed control at 121.5 g/ha reads like this: under setting [1], over 70%; under setting [2], over 70%.

For `CCOCC(=O)OCOc1c(OC)ccnc1C(=O)N[C@H]1CCC[C@H](Cc2ccccc2)[C@@H](Cc2ccccc2)[C@H](C)OC1=O` [Compound 8, ((2-(((3S,7R,8R,9S)-7,8-dibenzyl-9-methyl-2-oxooxonan-3-yl)carbamoyl)-4-methoxypyridin-3-yl)oxy)methyl 2-ethoxyacetate], the pest or weed control at 121.5 g/ha is over 70% under setting [1] and under 70% under setting [2].

With `COc1ccnc(C(=O)N[C@H]2CCC[C@H](Cc3ccccc3)[C@@H](C3CCCC3)[C@H](C)OC2=O)c1OC(C)=O` [Compound 9], the pest or weed control at 121.5 g/ha is, setting by setting: under setting [1], over 70%; under setting [2], under 70%.

As for `COc1ccnc(C(=O)N[C@H]2CCC[C@H](Cc3ccccc3)[C@@H](C3CCCC3)[C@H](C)OC2=O)c1OCOC(C)=O` [Compound 10], the pest or weed control at 121.5 g/ha is over 70% under setting [1] and over 70% under setting [2].

`COc1ccnc(C(=O)N[C@H]2CCC[C@H](Cc3ccc(Cl)cc3)[C@@H](CC(C)C)[C@H](C)OC2=O)c1OCOC(C)=O` [Compound 12]: the pest or weed control at 121.5 g/ha is over 70% under setting [1] and under 70% under setting [2].

In the case of `COc1ccnc(C(=O)N[C@H]2CCC[C@H](Cc3ccc(Cl)cc3)[C@@H](CC(C)C)[C@H](C)OC2=O)c1OC(C)=O` [Compound 13], the pest or weed control at 121.5 g/ha by setting is: under setting [1], over 70%; under setting [2], under 70%.

For `COc1ccnc(C(=O)N[C@H]2CCC[C@H](Cc3ccccc3)[C@@H](CC(C)C)[C@H](C)OC2=O)c1OCOC(C)=O` [Compound 14], the pest or weed control at 121.5 g/ha is, setting by setting: under setting [1], over 70%; under setting [2], under 70%.

`COc1ccnc(C(=O)N[C@H]2CCC[C@H](Cc3ccccc3)[C@@H](CCc3ccccc3)[C@H](C)OC2=O)c1OCOC(C)=O` [Compound 15]: the pest or weed control at 121.5 g/ha runs as follows: under setting [1], over 70%; under setting [2], under 70%.

Turning to `CCOCC(=O)OCOc1c(OC)ccnc1C(=O)N[C@H]1CCC[C@H](Cc2ccccc2)[C@@H](CCc2ccccc2)[C@H](C)OC1=O` [Compound 16], the pest or weed control at 121.5 g/ha by setting is: under setting [1], over 70%; under setting [2], over 70%.

As to `COc1ccnc(C(=O)N[C@H]2CCC[C@H](Cc3ccccc3)[C@@H](CCc3ccccc3)[C@H](C)OC2=O)c1OCOC(=O)C(C)C` [Compound 17], the pest or weed control at 121.5 g/ha is over 70% under setting [1] and under 70% under setting [2].

In the case of `COc1ccnc(C(=O)N[C@H]2CCC[C@H](Cc3ccccc3)[C@@H](CCc3ccccc3)[C@H](C)OC2=O)c1OC(C)=O` [Compound 18], the pest or weed control at 121.5 g/ha was under 70% under setting [1] and under 70% under setting [2].

As to `COc1ccnc(C(=O)N[C@H]2CCC[C@H](Cc3ccc(Cl)cc3)[C@@H](Cc3ccccc3)[C@H](C)OC2=O)c1OCOC(C)=O` [Compound 19], the pest or weed control at 121.5 g/ha runs as follows: under setting [1], over 70%; under setting [2], under 70%.

As to `CCOCC(=O)OCOc1c(OC)ccnc1C(=O)N[C@H]1CCC[C@H](Cc2ccc(Cl)cc2)[C@@H](Cc2ccccc2)[C@H](C)OC1=O` [Compound 20], the pest or weed control at 121.5 g/ha under setting [1] is over 70% and the pest or weed control at 121.5 g/ha under setting [2] was over 70%.

Turning to `COc1ccnc(C(=O)N[C@H]2CCC[C@H](Cc3ccc(Cl)cc3)[C@@H](Cc3ccccc3)[C@H](C)OC2=O)c1OC(C)=O` [Compound 21], the pest or weed control at 121.5 g/ha was over 70% under setting [1] and under 70% under setting [2].

With `COc1ccnc(C(=O)N[C@H]2CCC[C@H](Cc3ccc(C(F)(F)F)cc3)[C@@H](CC(C)C)[C@H](C)OC2=O)c1OC(C)=O` [Compound 22], the pest or weed control at 121.5 g/ha runs as follows: under setting [1], over 70%; under setting [2], under 70%.

Regarding `COc1ccnc(C(=O)N[C@H]2CCC[C@H](Cc3ccc(C(F)(F)F)cc3)[C@@H](CC(C)C)[C@H](C)OC2=O)c1OCOC(C)=O` [Compound 23], the pest or weed control at 121.5 g/ha by setting is: under setting [1], over 70%; under setting [2], under 70%.

Regarding `COc1ccnc(C(=O)N[C@H]2CCC[C@H](Cc3ccc(C(F)(F)F)cc3)[C@@H](CC(C)C)[C@H](C)OC2=O)c1OCOC(=O)C(C)C` [Compound 24], the pest or weed control at 121.5 g/ha by setting is: under setting [1], under 70%; under setting [2], under 70%.

Take `COc1ccnc(C(=O)N[C@H]2CCC[C@H](Cc3ccc(C(F)(F)F)cc3)[C@@H](Cc3ccccc3)[C@H](C)OC2=O)c1OC(C)=O` [Compound 25]: the pest or weed control at 121.5 g/ha is, setting by setting: under setting [1], under 70%; under setting [2], under 70%.

With `COc1ccnc(C(=O)N[C@H]2CCC[C@H](Cc3ccc(C(F)(F)F)cc3)[C@@H](Cc3ccccc3)[C@H](C)OC2=O)c1OCOC(C)=O` [Compound 26], the pest or weed control at 121.5 g/ha runs as follows: under setting [1], over 70%; under setting [2], under 70%.

For the compound `COc1ccnc(C(=O)N[C@H]2CCC[C@H](Cc3ccc(C(F)(F)F)cc3)[C@@H](Cc3ccccc3)[C@H](C)OC2=O)c1OCOC(=O)C(C)C` [Compound 27], the pest or weed control at 121.5 g/ha reads like this: under setting [1], over 70%; under setting [2], under 70%.

As for `COc1ccnc(C(=O)N[C@H]2CCC[C@H](Cc3ccc(Cl)cc3)[C@@H](C3CCCC3)[C@H](C)OC2=O)c1OC(C)=O` [Compound 28], the pest or weed control at 121.5 g/ha under setting [1] was over 70% and the pest or weed control at 121.5 g/ha under setting [2] was under 70%.

Turning to `COc1ccnc(C(=O)N[C@H]2CCC[C@H](Cc3ccc(Cl)cc3)[C@@H](C3CCCC3)[C@H](C)OC2=O)c1OCOC(C)=O` [Compound 29], the pest or weed control at 121.5 g/ha is, setting by setting: under setting [1], over 70%; under setting [2], under 70%.

On to `COc1ccnc(C(=O)N[C@H]2CCC[C@H](Cc3ccc(Cl)cc3)[C@@H](C3CCCC3)[C@H](C)OC2=O)c1OCOC(=O)C(C)C` [Compound 30], for which the pest or weed control at 121.5 g/ha is under 70% under setting [1] and under 70% under setting [2].

Turning to `CCOCC(=O)OCOc1c(OC)ccnc1C(=O)N[C@H]1CCC[C@H](Cc2ccc(Cl)cc2)[C@@H](C2CCCC2)[C@H](C)OC1=O` [Compound 31], the pest or weed control at 121.5 g/ha is over 70% under setting [1] and under 70% under setting [2].

For the compound `COc1ccnc(C(=O)N[C@H]2CCC[C@H](CCCc3ccccc3)[C@@H](CCc3ccccc3)[C@H](C)OC2=O)c1OCOC(C)=O` [Compound 32], the pest or weed control at 121.5 g/ha runs as follows: under setting [1], over 70%; under setting [2], under 70%.

With `COc1ccnc(C(=O)N[C@H]2CCC[C@H](CCCc3ccccc3)[C@@H](CCc3ccccc3)[C@H](C)OC2=O)c1OC(C)=O` [Compound 33], the pest or weed control at 121.5 g/ha under setting [1] was under 70% and the pest or weed control at 121.5 g/ha under setting [2] was under 70%.

In the case of `COc1ccnc(C(=O)N[C@H]2CCC[C@H](CCC(C)C)[C@@H](CCc3ccccc3)[C@H](C)OC2=O)c1OCOC(C)=O` [Compound 34], the pest or weed control at 121.5 g/ha runs as follows: under setting [1], over 70%; under setting [2], under 70%.

As to `CCOCC(=O)OCOc1c(OC)ccnc1C(=O)N[C@H]1CCC[C@H](CCC(C)C)[C@@H](CCc2ccccc2)[C@H](C)OC1=O` [Compound 35], the pest or weed control at 121.5 g/ha under setting [1] was over 70% and the pest or weed control at 121.5 g/ha under setting [2] was under 70%.

As for `COc1ccnc(C(=O)N[C@H]2CCC[C@H](CCC(C)C)[C@@H](CCc3ccccc3)[C@H](C)OC2=O)c1OC(C)=O` [Compound 36], the pest or weed control at 121.5 g/ha is, setting by setting: under setting [1], over 70%; under setting [2], under 70%.
